From ChEMBL document CHEMBL1153243, “Structure and property based design of factor Xa inhibitors: pyrrolidin-2-ones with monoaryl P4 motifs” (Bioorg Med Chem Lett, 2010) come the findings set out here.

What all share (format): ADME, organism-based
Series [1] in a line: Plasma clearance in Sprague-Dawley rat.
The nature of series [2]: Half life in Sprague-Dawley rat. Conditions: in vivo.
The nature of series [3]: Volume of distribution at steady state in Sprague-Dawley rat. Conditions: in vivo, read-out: Vdss.
A short description of series [4]: Oral bioavailability in Sprague-Dawley rat. The following applies: in vivo.

For the molecule `C[C@H](c1ccc(N2CC[C@H](NS(=O)(=O)/C=C/c3ccc(Cl)s3)C2=O)c(F)c1)N(C)C`, the clearance in series [1] is 7.5 mL/min/kg. In series [2], this molecule gave a half-life of 1.3 h. The Vd in series [3] turned out to be 0.66 L/kg. The molecule further returned a bioavailability in series [4] of 54%.

`CN[C@H](C)c1ccc(N2CC[C@H](NS(=O)(=O)c3ccc4cc(Cl)ccc4c3)C2=O)c(F)c1`: the clearance in series [1] amounted to 1.6 mL/min/kg. Moreover, in series [2], the half-life was 18 h. In series [3], the Vd was found to be 2.4 L/kg. Moreover, in series [4], the bioavailability was > 10%.

For `C[C@H](c1ccc(N2CC[C@H](NS(=O)(=O)c3ccc4cc(Cl)ccc4c3)C2=O)c(F)c1)N(C)C`, the clearance in series [1] amounted to 8 mL/min/kg. This molecule showed a half-life in series [2] of 2.6 h. Further, the Vd in series [3] stood at 1.3 L/kg. In series [4], this molecule displayed a bioavailability of 43%.

`C[C@@H](c1ccc(N2CC[C@H](NS(=O)(=O)c3ccc4cc(Cl)ccc4c3)C2=O)c(F)c1)N(C)C` showed a clearance in series [1] of 13 mL/min/kg. In series [2], this molecule had a half-life of 2.1 h. In addition, the Vd in series [3] was 1.8 L/kg. This molecule also gave a bioavailability in series [4] of 81%.

As for `C[C@@H](c1ccc(N2CC[C@H](NS(=O)(=O)/C=C/c3ccc(Cl)s3)C2=O)c(F)c1)N(C)C`, in series [1], the clearance worked out at 4.3 mL/min/kg. In series [2], this molecule showed a half-life of 1.6 h. Also, the Vd in series [3] was 0.53 L/kg. In series [4], this molecule showed a bioavailability of 23%.

With `CC(c1ccc(N2CC[C@H](NS(=O)(=O)c3cc4ccc(Cl)cc4s3)C2=O)c(F)c1)N(C)C` (stereo partly drawn), in series [1], the clearance turned out to be 2.1 mL/min/kg. Further, the half-life in series [2] was 3.1 h. Moreover, the Vd in series [3] was determined as 0.52 L/kg. The same molecule showed a bioavailability in series [4] of 10%.

Take `CN[C@@H](C)c1ccc(N2CC[C@H](NS(=O)(=O)c3ccc4cc(Cl)ccc4c3)C2=O)c(F)c1`: in series [1], the clearance was 3.1 mL/min/kg. In series [2], this molecule gave a half-life of 15 h. In addition, the Vd in series [3] came to 3.3 L/kg. The bioavailability in series [4] was > 15%.

In general, clearance refers to the volume of plasma or blood freed of the substance per unit of time. Lower therefore signals a low capacity for elimination. One may read the half-life as the time needed for the level to fall by half in the phase considered. Low values mean rapid decline, high ones slow decline. For orientation: bioavailability means the share of a dose that reaches the circulation, judged against a reference dose that is usually intravenous. Read a low bioavailability as little systemic uptake.
